In publication PMC9564337, “Development of a Neurotensin-Derived ^68Ga-Labeled PET Ligand with High In Vivo Stability for Imaging of NTS1 Receptor-Expressing Tumors” (Cancers, 2022):
Like-named read-outs stand apart in the source and are kept apart here. Marks after values point to notes of the source that are not given here.

Assays:
[1] = human plasma, 37 °C, ref Schindler et al. [40], cited from earlier work
hNTS2R = hNTS2R (Homo sapiens, UniProt O95665); assay: radioligand competition binding with [3H]UR-MK300 at intact HEK293T-hNTS2R cells; details: [3H]UR-MK300 c = 10 nM
Chain of hNTS2R (O95665 whole entry): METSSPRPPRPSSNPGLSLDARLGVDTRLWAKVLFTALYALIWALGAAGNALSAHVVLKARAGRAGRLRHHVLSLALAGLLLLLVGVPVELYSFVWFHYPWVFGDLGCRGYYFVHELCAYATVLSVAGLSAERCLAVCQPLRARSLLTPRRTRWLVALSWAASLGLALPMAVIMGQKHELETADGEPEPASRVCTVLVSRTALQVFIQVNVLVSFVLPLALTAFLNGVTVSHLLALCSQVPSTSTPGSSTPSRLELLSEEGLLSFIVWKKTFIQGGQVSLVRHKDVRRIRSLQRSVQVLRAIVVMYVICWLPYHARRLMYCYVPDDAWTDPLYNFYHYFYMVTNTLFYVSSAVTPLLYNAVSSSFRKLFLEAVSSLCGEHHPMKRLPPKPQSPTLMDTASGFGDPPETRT
Protocol: Two days prior to the experiment, white 96-well plates with clear bottoms (Costar, catalog no. 3610) were treated with poly-D-lysine hydrobromide (Sigma-Aldrich) for 10 min. The wells were washed with H2O and the plates were dried on air at rt overnight. […] After removal of the glutaraldehyde solution, the wells were washed twelve times with H2O and two times with culture medium (150–300 µL). […] On the day of the experiment, the culture medium was carefully removed using a multi-channel pipette (Transferpette S-12, Brand, Wertheim, Germany) and the cells were washed once with Dulbecco’s phosphate-buffered saline (D-PBS) containing Ca^2+ and Mg^2+ (1.8 mM CaCl2, 2.68 mM KCl, 1.47 mM KH2PO4, 3.98 mM MgSO4, 136.9 mM NaCl and 8.06 mM Na2HPO4) (200 μL, rt) followed by the careful pre-filling of the wells with 180 µL (total binding) or 160 µL (unspecific and competition binding) of D-PBS, supplemented with 1% BSA and 100 μg/mL bacitracin (Serva, Heidelberg, Germany) (in the following referred to as binding buffer). To determine total binding, 20 µL of a solution of the radioligand in binding buffer (10-fold concentrated compared to the final concentration) were added. […] To determine the displacing effect of a compound of interest, 20 µL of a solution of the respective compound in binding buffer (10-fold concentrated) and 20 µL of a 10-fold concentrated solution of the radioligand in binding buffer were added. During the incubation period of 2 h at 23 °C, the plates were gently shaken. […] The plates were sealed with a transparent sealing tape (permanent seal for microplates, PerkinElmer, product no. 1450–461) and turned upside down several times to achieve complete mixing. Prior to the measurement of the radioactivity with a MicroBeta2 plate counter (PerkinElmer), the plates were kept in the dark for at least 1 h. All experiments were performed in triplicate.

hNTS1R [2] = biological target: T1, hNTS1R (Homo sapiens, UniProt P30989); assay: radioligand competition binding with [3H]UR-MK300 at intact HT-29 cells
T1 construct: intact HT-29 colon carcinoma cells expressing the hNTS1R; host or cells: HT-29 human colon carcinoma cells
T1 sequence (P30989 whole entry): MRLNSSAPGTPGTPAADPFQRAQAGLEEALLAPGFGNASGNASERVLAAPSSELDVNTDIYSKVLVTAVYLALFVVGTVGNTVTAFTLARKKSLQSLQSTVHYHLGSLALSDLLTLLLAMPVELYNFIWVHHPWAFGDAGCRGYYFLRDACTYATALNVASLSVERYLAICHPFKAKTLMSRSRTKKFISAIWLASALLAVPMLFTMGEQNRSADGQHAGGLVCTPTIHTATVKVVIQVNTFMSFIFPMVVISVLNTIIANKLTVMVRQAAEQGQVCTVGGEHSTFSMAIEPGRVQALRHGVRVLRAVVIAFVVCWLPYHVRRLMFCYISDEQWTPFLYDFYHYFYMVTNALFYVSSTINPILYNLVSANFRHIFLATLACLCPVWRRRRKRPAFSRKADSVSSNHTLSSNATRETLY

hNTS1R [3] = biological target: T1, hNTS1R; details: HT-29 cells; ref Schindler et al. [40]; cited from earlier work
in vivo = details: female, NMRI nude (nu/nu), mouse, total radioactivity
Protocol: (§1) 8–12 weeks old female NMRI nude (nu/nu) mice (body weight 22–32 g) (Charles River, Sulzfeld, Germany) were kept under specified pathogen free (SPF) conditions at 23 °C, 55% relative humidity and a 12 h light/dark cycle in the central animal facility of the University of Regensburg using type III cages from Tecniplast (Hohenpeißenberg, Germany). The animals took food (Ssniff, Soest, Germay) and autoclaved tap water ad libitum. For tumor cell implantation, the culture medium of HT-29 cells was removed, the cells were detached from the culture flask by incubation for 2 min in trypsin-EDTA and the suspension was centrifuged (5 min, rt, 164 g). The supernatant was removed, and the cell pellet was washed twice with sterile PBS or serum-free medium (5–6 mL). The cells were resuspended in sterile PBS to a final density of 1 × 10^7 cells/mL. Mice were injected subcutaneously into the right flank with the HT-29 cell suspension (100 µL). After 2–4 weeks, when the tumors had reached a size of 50–500 mm^3, animals were used for biodistribution and PET/computed tomography (CT) imaging studies (note: for PET/CT studies, the tumor size was at least 200 mm^3).
(§2) Aliquots of the tracer stock were diluted in PBS to give a volume of 200 µL. 80–100 µL (0.9–5.9 MBq) of this solution were injected into anesthetized HT-29 tumor-bearing nude mice via the tail vein. Animals were kept on a heating plate (set to 40 °C) or a pre-heated (ca. 45 °C) gel cushion and were killed by cardiac puncture 10 min, 25 min or 45 min p.i. immediately followed by taking blood, urine and tissue (i.e., tumor, kidney, liver, gall bladder, spleen, small intestine, heart, lung, brain, pancreas, femur and muscle) samples. Radioactivity measurement of the samples was performed with the Canberra Genie 2000 system described for the determination of the distribution coefficient logD7.4. Decay-corrected measured activities (cpm) were converted into activities (MBq) on the basis of an activity measurement with a ^68Ge-calibration standard source (Eckert&Ziegler, Berlin, Germany). Sample activities were converted to percentage of injected dose per gram tissue (%ID/g). Blocking experiments were performed by co-injection of the tracer with NTS1R ligand 48 (ca. 700 nmol per mouse). Mice were killed 45 min p.i. and analyzed as described above. The animals used for the 45-min biodistribution experiments were the same as used for the PET/CT imaging studies.

[4] = test system: HT-29 tumor-bearing nude mice; assay: in vivo; details: mouse
Protocol: as §1, §2

physchem = format: physicochemical; details: pH 7.4
Protocol: The distribution coefficients logD7.4 of the radiotracers [^68Ga]21, [^68Ga]33, [^68Ga]37 and [^68Ga]56 were determined by adding a solution of the tracer in PBS (100 μL, ca. 0.20–0.34 MBq) to a mixture of n-octanol (500 μL) and PBS (pH 7.4) (400 μL) in a 2-mL HPLC vial (Agilent, article number 5182-0714) with a screw cap equipped with a septum (Agilent, article number 5182-0717). After vortexing the mixture for 2 min, two 100 μL aliquots of the upper phase (n-octanol) were taken. To obtain a sample of the lower phase (PBS), the HPLC vial was held upside down and approximately 100–150 µL of the aqueous phase were removed using a syringe equipped with a canula and collected in a reaction vessel. Two 10 µL aliquots of the aqueous phase were subjected to measurement. The activity of the aliquots was measured with a Canberra Genie 2000 system (Canberra, Rüsselsheim, Germany) using the Gamma Acquisition & Analysis Software Genie 2000 3.4.1. Experiments were performed in triplicate. The decay-corrected counts per minute (cpm) values were averaged (n = 3) and transformed to a distribution coefficient logD7.4 according to logD7.4 = log(Aoctanol/Aaqueous), where Aoctanol is the mean of the decay-corrected cpm values obtained for samples of the n-octanol phase, and Aaqueous is the mean of the decay-corrected cpm values obtained for samples of the aqueous phase.

Ki (hNTS2R; read-out: Ki [nM] NTS2R (converted)) | Ki (hNTS2R; read-out: pKi ± SD NTS2R (converted)) | NTS1R Selectivity (Ratio Ki (NTS2R)/Ki (NTS1R)) (hNTS1R [2]) | SMILES | % Intact Peptide in Plasma after 1 h ([1]; 1 h) | % Intact Peptide in Plasma after 6 h ([1]; 6 h) | % Intact Peptide in Plasma after 24 h ([1]; 24 h) | % Intact Peptide in Plasma after 48 h ([1]; 48 h) | pKi NTS1R (hNTS1R [3]) | tissue to tissue ratio at 0.75 h (in vivo; iv, tumor-to-muscle ratio) | tissue uptake at 0.75 h (in vivo; Uptake (%ID/g) blood) | tissue uptake at 0.75 h (in vivo; Uptake (%ID/g) gall bladder (bile)) | tissue uptake at 0.75 h (in vivo; Uptake (%ID/g) kidney) | tissue uptake at 0.75 h (in vivo; Uptake (%ID/g) liver) | tissue uptake at 0.75 h (in vivo; Uptake (%ID/g) muscle) | tissue uptake at 0.75 h (in vivo; Uptake (%ID/g) tumor) | tumor-to-muscle ratio [4] | logD (physchem)
9.9 nM | 9.77 nM | 11 | CN[C@@H](CCCNC(=N)N)C(=O)N[C@@H](CCCNC(=N)N)C(=O)N1CCC[C@H]1C(=O)N[C@@H](Cc1ccc(O)cc1)C(=O)N[C@H](C(=O)N[C@@H](CC(C)C)C(=O)O)C(C)(C)C [Compound 3, reference compound] | >99 ^d % | >99 ^d % | 98 ^d % | 87 ^d % | 9.07 |  |  |  |  |  |  |  |  | 
 |  |  | CN[C@@H](CCCNC(N)=NC(=O)NCCCCNC(=O)CN1CCN(CC(=O)O)CCN(CC(=O)O)CCN(CC(=O)O)CC1)C(=O)N[C@@H](CCCNC(=N)N)C(=O)N1CCC[C@H]1C(=O)N[C@@H](Cc1ccc(O)cc1)C(=O)N[C@H](C(=O)N[C@@H](CC(C)C)C(=O)O)C(C)(C)C [[^68Ga]21, metal not drawn] |  |  |  |  |  | 9.5 ± 3.7 | 0.63 ± 0.2 %ID/g | 0.55 ± 0.29 %ID/g | 6 ± 1.9 %ID/g | 0.59 ± 0.17 %ID/g | 0.21 ± 0.062 %ID/g | 1.9 ± 0.7 %ID/g | 9.5 | -3.87
